From US11485728B2, “Small molecules for the treatment of autoimmune diseases and cancer” (Athos Therapeutics, Inc., priority 2020, dated 2022) come the findings set out here.

Where two headings read alike, the source gives them in different places.

For orientation: IC50 means the concentration that inhibits the measured activity by half.

One data set concerns C57BL/6 mice. In words: MTD studies in mice. The format is in vivo. As to conditions: mouse, in vivo, po.
Data set [1] is described as follows: Formulation visual stability (DMA/PG/PEG 300/water). The format is physicochemical. As to conditions: 25° C., 10-11 mg/mL in DMA/PG/PEG 300/Water. On the procedure: All formulations were conducted with FDA approved excipients and with high purity material such as USP grade quality. Formulation stability of test articles are performed using HPLC purity method described within analytical section. This formula may be used for oral administration of the compounds described herein; […]. Since these compounds have high solubility in lower pH as described in the solubility study section, the intervenous delivery is performed with 100% phosphate buffer solution of pH 6.5 allowing up to 7 mg/mL concentration. The formulated test articles can be store at 4° C. Prior to dosing, it should be warmed and vortexed for about 1 min to make a homogenous solution. If needed, filter through 0.2 μM syringe filter to maintain clean and sterile.

Data set [2] concerns CaCo-2 intestinal epithelial cells. In words: Transepithelial resistance (TEER) of CaCo-2 cells exposed to TNFα and IFNγ. The format is cell-based. The settings on record: for epithelial barrier resistance: TNFα 10 ng/ml, IFNγ 100 ng/ml, compounds 1 μM, 48 hrs of treatment; for transepithelial resistance after combined TNFα and IFNγ exposure: TNFα 20 ng/ml, IFNγ 200 ng/ml, 24 hrs of treatment. As for the experimental part: The intestinal epithelial barrier plays a central role in the pathophysiology of multiple chronic inflammatory and autoimmune diseases. Intestinal epithelial cells provide a physical barrier that interacts with immune cells and protects internal cavities from mucosal bacterial and antigen intrusion. Intestinal inflammation during IBD is associated with disruption of this barrier and cytokines like TNFα play important roles.
At confluence TEER is measured and TNFα along with compounds are added as described above. Compound-induced TEER is determined after correction with measurement prior to treatment.

A further data set can be described thus: pH solubility. In kind it is physicochemical. The settings on record: for solubility at 24 h: aqueous solution, thermodynamic from solid, read-out: Solubility Concentration; for solubility higher than the solubility of compound 201: pH 7.4. On the procedure: Saturated solutions of selected compounds were prepared at pH 1, 4, 6.5, and 7.4. The pH conditions selected are within the extremes of the normal physiological pH of the human gastrointestinal tract. Solubility testing of drug under different pH conditions was carried out by adding an excess amount of drug to each pH condition initiating with 1 mg/mL and then confirmed saturation by visual observation of undissolved material. The saturated solutions are continuously shaking at 6,000 rpm for 24 hours at room temperature. The saturated solutions were filtered through Millipore 0.22 um PVDF hydrophilic filters and subjected to HPLC to evaluate the solubility concentration of the test compound. Filtered saturated solutions were diluted with acetonitrile:water (50:50) within the calibration standard curve. A calibration curve of test compound contained […] standards at concentrations 0.25, 0.5, 1.0, 5.0, 10, 25, 50 and 100 μg/mL were prepared in acetonitrile:water (50:50).
Compounds were measured in filtered saturated solution using an Agilent 1260 Infinity II Lab LC Series HPLC (1260 quat pump, 1260 vial autosampler, ICC column oven, 1260 DAD WR detector). The chromatographic separation was achieved by Phenomenex Synergi Polar RP column (150×4.6 mm, 4 μm, 80 Å). The mobile phase was gradient (A: water with 0.1% trifluoroacetic acid, B: acetonitrile with 0.1% trifluoroacetic acid; A/B (99:1) from 0 minute; to A/B (1:99) from 0 to 10 minutes; A/B (1:99) from 10 to 12 minutes; to A/B (99:1) from 12 to 12.1 minutes; A/B (99:1) from 12.1 to 13 minutes) pumped at a flow rate of 1 mL/min. The detection of the eluent was monitored at 254 nm. The column oven was set at 35° C. Injection volume was 10 μL, unless otherwise specified. Data acquisition and peak integrations were obtained by OpenLAB CDS Version 2.4 (Agilent) operating with Windows (Microsoft).
Solubility is the ability of a drug to dissolve in an aqueous solution under different pH conditions. It is defined as the amount of substance that passes into solution to achieve a saturated solution at a constant temperature and pressure. The purpose of this study was to determine the solubility of selected compounds under different pH conditions and determine whether an oral solution is feasible or a suspension would be better to support the drug formulation process for pre-clinical studies. The pH conditions selected were within the extremes of the normal physiological pH of the human gastrointestinal tract, such as pH 1, pH 4, pH 6.5, and pH 7.4.

The subject of a further data set is 5637. In words: 5637 bladder cancer cell viability (Real-Time-Glo). The format is cell-based. The settings on record: 72 hr; read-out: IC50, Cell line: 5637. On the procedure:
To determine the plating density for cell viability assays, for each cell line, cells were counted and diluted to final densities of 2.5, 5, 10 and 20 thousand per 100 μl of their respective growth media per well in 96 well plates. A Promega Real-Time-Glo cell viability kit was used to determine the optimal concentration for cell plating so that each cell line would be within the linear part of its growth curve after 72 hrs in culture. For the determination of test compound IC50s different cancer cell lines were plated in 96 well plates in the pre-determined optimal density for each cell line. Test compounds were then added at different concentrations for the creation of six-point curve and cell density was determined using the Promega Real-Time-Glo cell viability kit after 24, 48, and 72 hrs in culture. Test compound 72 hr IC50s were calculated using the AAT Bioquest IC50 calculator.
The following compounds are evaluated for their ability to block cancer cell growth in colon (HT-29), liver (HepG2), pancreatic (MiaPaca-2) and bladder (5637) cancer cell lines. Specifically, the Promega Real-Time-Glo cell viability kit was used to determine the optimal concentration for cell plating so that each cell line would be within the linear part of its growth curve after 72 hrs in culture. For the determination of test compound IC50s different cancer cell lines are plated in 96 well plates in the pre-determined optimal density for each cell line. Test compounds are then added at different concentrations for the creation of six-point curve and cell density is determined using the Promega Real-Time-Glo cell viability kit after 24, 48, and 72 hrs in culture. Test compound 72 hr IC50s is calculated using the AAT Bioquest IC50 calculator.

Where [3] appears, read: CaCo-2, TNFα along with compounds.

Turning to `COc1cc2c(NC3CCS(=O)(=O)CC3)nc(N3CCC(F)(F)CC3)nc2cc1OCCCN1CCCC1` [Compound 1, 4-((2-(4,4-difluoropiperidin-1-yl)-6-methoxy-7-(3-(pyrrolidin-1-yl)propoxy)quinazolin-4-yl)amino)tetrahydro-2H-thiopyran 1,1-dioxide], the “effects in weight change (MTD studies)” value in the data set on C57BL/6 mice was “not cause any effects in weight change”. Moreover, the Appearance result in data set [1] (30 min), in data set [1] (1 h), in data set [1] (5 h), in data set [1] (24 h) and in data set [1] (7 d) was “clear” throughout. The epithelial barrier resistance result in data set [2] is “recovered epithelial barrier resistance levels back to those of untreated cells”. Further, the “transepithelial resistance after combined TNFα and IFNγ exposure” value in data set [2] is recorded as “ameliorated the disruptive effects”. In addition, the TEER result in data set [2] (vs control group) is recorded as “+”. In addition, the solubility at 24 h was 11600 µg/mL in “pH solubility” (pH 4, aqueous buffer); 6050 µg/mL in “pH solubility” (pH 6.5, aqueous buffer); 424 µg/mL in the data set “pH solubility” (pH 7.4, aqueous buffer). Besides, in “pH solubility”, the “solubility higher than the solubility of compound 201” value stood at 40 fold.

With `COc1cc2c(NC3CCOCC3)nc(N3CCC(F)(F)CC3)nc2cc1OCCCN1CCCC1` [Compound 2, 2-(4,4-difluoropiperidin-1-yl)-6-methoxy-7-(3-(pyrrolidin-1-yl)propoxy)-N-(tetrahydro-2H-pyran-4-yl)quinazolin-4-amine], the Appearance result in data set [1] (30 min), in data set [1] (1 h), in data set [1] (5 h), in data set [1] (24 h) and in data set [1] (7 d) was “clear” throughout. For the same compound, the epithelial barrier resistance entry in data set [2] is “recovered epithelial barrier resistance levels back to those of untreated cells”. Also, the “transepithelial resistance after combined TNFα and IFNγ exposure” value in data set [2] is “ameliorated the disruptive effects”. Moreover, the TEER entry in data set [2] (vs control group) was “+”. For the same compound, in the data set with 5637, the half-maximal inhibitory concentration (IC50) lay in the range of 10 to 20 µM. Also, the solubility at 24 h is 27500 µg/mL in “pH solubility” (pH 6.5, aqueous buffer) and 449 µg/mL in the data set “pH solubility” (pH 7.4, aqueous buffer). The “solubility higher than the solubility of compound 201” value in the data set “pH solubility” came out at 40 fold.

For `COCCN1CCC(Nc2nc(N3CCC(F)(F)CC3)nc3cc(OCCCN4CCCC4)c(OC)cc23)CC1` [Compound 3, 2-(4,4-difluoropiperidin-1-yl)-6-methoxy-N-(1-(2-methoxyethyl)piperidin-4-yl)-7-(3-(pyrrolidin-1-yl)propoxy)quinazolin-4-amine], the 50% inhibitory concentration (IC50) with 5637 lay in the range of 5 to 10 µM.

For the compound `COCCNc1nc(N2CCC(F)(F)CC2)nc2cc(OCCCN3CCCC3)c(OC)cc12` [Compound 4, 2-(4,4-difluoropiperidin-1-yl)-6-methoxy-N-(2-methoxyethyl)-7-(3-(pyrrolidin-1-yl)propoxy)quinazolin-4-amine], in the data set on 5637, the half-inhibitory concentration (IC50) was in the range of 10 to 20 µM.

On to `COc1cc2c(Nc3ccncc3)nc(N3CCC(F)(F)CC3)nc2cc1OCCCN1CCCC1` [Compound 7, 2-(4,4-difluoropiperidin-1-yl)-6-methoxy-N-(pyridin-4-yl)-7-(3-(pyrrolidin-1-yl)propoxy)quinazolin-4-amine], for which the TEER result in data set [2] (setting [3]) is listed as “−”. Also, the epithelial barrier resistance entry in data set [2] is “recovered epithelial barrier resistance levels back to those of untreated cells”. In the data set on 5637, the half-maximal inhibitory concentration (IC50) was 1 to 5 µM.

Turning to `COc1cc2c(NC3COC3)nc(N3CCC(F)(F)CC3)nc2cc1OCCCN1CCCC1` [Compound 11, 2-(4,4-difluoropiperidin-1-yl)-6-methoxy-N-(oxetan-3-yl)-7-(3-(pyrrolidin-1-yl)propoxy)quinazolin-4-amine], the solubility at 24 h was 4450 µg/mL in “pH solubility” (pH 4, aqueous buffer); 3180 µg/mL in “pH solubility” (pH 6.5, aqueous buffer); 245 µg/mL in “pH solubility” (pH 7.4, aqueous buffer).

With `COc1cc2c(NC3CCN(C(C)C)CC3)nc(-n3ccnc3)nc2cc1OCCCN1CCCC1` [Compound 156, 2-(1H-imidazol-1-yl)-N-(1-isopropylpiperidin-4-yl)-6-methoxy-7-(3-(pyrrolidin-1-yl)propoxy)quinazolin-4-amine], the IC50 with 5637 was in the range of 1 to 5 µM.

In the case of `COc1cc2c(NC3CCOCC3)nc(N3CCCC3)nc2cc1OCCCN1CCCC1` [Compound 164, 6-methoxy-2-(pyrrolidin-1-yl)-7-(3-(pyrrolidin-1-yl)propoxy)-N-(tetrahydro-2H-pyran-4-yl)quinazolin-4-amine], the TEER entry in data set [2] (setting [3]) is “++”. Also, the IC50 in the data set on 5637 lay in the range of 5 to 10 µM.

For `COc1cc2c(NC3CCOCC3)nc(N3CCC3)nc2cc1OCCCN1CCCC1` [Compound 174, 2-(azetidin-1-yl)-6-methoxy-7-(3-(pyrrolidin-1-yl)propoxy)-N-(tetrahydro-2H-pyran-4-yl)quinazolin-4-amine], in the data set on 5637, the 50% inhibitory concentration (IC50) lay within 10 to 20 µM.

Regarding `COc1cc2c(NC3CCN(C(C)C)CC3)nc(N3CCC3)nc2cc1OCCCN1CCCC1` [Compound 234, 2-(azetidin-1-yl)-N-(1-isopropylpiperidin-4-yl)-6-methoxy-7-(3-(pyrrolidin-1-yl)propoxy)quinazolin-4-amine], the half-maximal inhibitory concentration (IC50) in the data set on 5637 is 5 to 10 µM.

As to `COc1cc2c(NC3CCN(C(C)C)CC3)nc(C#N)nc2cc1OCCCN1CCCC1` [Compound 235, 4-((1-isopropylpiperidin-4-yl)amino)-6-methoxy-7-(3-(pyrrolidin-1-yl)propoxy)quinazoline-2-carbonitrile], the 50% inhibitory concentration (IC50) in the data set with 5637 fell in the range of 5 to 10 µM.
